Reference: patent US6056958A, “Method of treatment of arterial and venous thromboembolic disorders” (Dupont Pharmaceuticals, priority 1997, dated 2000)
Non-standard residues stand in square brackets, D forms with d. Residues, ends and D or L forms follow the SMILES beside them. 3Amb = NCc1cccc(C(=O)O)c1

Assays:
[1] = test system: Platelet Aggregation; assay: In Vivo Platelet Aggregation Inhibition in Dog; conditions: IV
[2] = test system: Platelet Aggregation; assay: Platelet Aggregation Assay (in vitro, ADP-induced, platelet-rich plasma); format: cell-based, mongrel dogs or human
Protocol: Platelet Aggregation Assay
Venous blood was obtained from anesthetized mongrel dogs or from healthy human donors who were drug-free and aspirin-free for at least two weeks prior to blood collection. Blood was collected into citrated Vacutainer tubes. The blood was centrifuged for 15 minutes at 150× g (850 RPM in a Sorvall RT6000 Tabletop Centrifuge with H-1000 B rotor) at room temperature, and platelet-rich plasma (PRP) was removed. The remaining blood was centrifuged for 15 minutes at 1500× g ([…]) at room temperature, and platelet-poor plasma (PPP) was removed. Samples were assayed on an aggregometer (PAP-4 Platelet Aggregation Profiler), using PPP as the blank (100% transmittance). 200 μL of PRP (5×10^8 platelets/mL) were added to each micro test tube, and transmittance was set to 0%. 20 μl of ADP (10 μM) was added to each tube, and the aggregation profiles were plotted (% transmittance versus time). Test agent (20 μL) was added at different concentrations prior to the addition of the platelet agonist. Results are expressed as % inhibition of agonist-induced platelet aggregation.

[3] = molecular target: T1, GPIIb/IIIa receptor (Homo sapiens, UniProt P05106+P08514); assay: GPIIb/IIIa Receptor-Biotinylated Fibrinogen Binding Assay; conditions: inhibition of fibrinogen binding to purified GPIIb/IIIa
T1 construct: The GPIIb/IIIa receptor was purified from human platelets; from tissue; host or cells: human platelets (purified according to D'Souza et al., J. Biol. Chem. 1990, 265:3440-3446)
T1 sequence (P08514 32-887 limits assumed): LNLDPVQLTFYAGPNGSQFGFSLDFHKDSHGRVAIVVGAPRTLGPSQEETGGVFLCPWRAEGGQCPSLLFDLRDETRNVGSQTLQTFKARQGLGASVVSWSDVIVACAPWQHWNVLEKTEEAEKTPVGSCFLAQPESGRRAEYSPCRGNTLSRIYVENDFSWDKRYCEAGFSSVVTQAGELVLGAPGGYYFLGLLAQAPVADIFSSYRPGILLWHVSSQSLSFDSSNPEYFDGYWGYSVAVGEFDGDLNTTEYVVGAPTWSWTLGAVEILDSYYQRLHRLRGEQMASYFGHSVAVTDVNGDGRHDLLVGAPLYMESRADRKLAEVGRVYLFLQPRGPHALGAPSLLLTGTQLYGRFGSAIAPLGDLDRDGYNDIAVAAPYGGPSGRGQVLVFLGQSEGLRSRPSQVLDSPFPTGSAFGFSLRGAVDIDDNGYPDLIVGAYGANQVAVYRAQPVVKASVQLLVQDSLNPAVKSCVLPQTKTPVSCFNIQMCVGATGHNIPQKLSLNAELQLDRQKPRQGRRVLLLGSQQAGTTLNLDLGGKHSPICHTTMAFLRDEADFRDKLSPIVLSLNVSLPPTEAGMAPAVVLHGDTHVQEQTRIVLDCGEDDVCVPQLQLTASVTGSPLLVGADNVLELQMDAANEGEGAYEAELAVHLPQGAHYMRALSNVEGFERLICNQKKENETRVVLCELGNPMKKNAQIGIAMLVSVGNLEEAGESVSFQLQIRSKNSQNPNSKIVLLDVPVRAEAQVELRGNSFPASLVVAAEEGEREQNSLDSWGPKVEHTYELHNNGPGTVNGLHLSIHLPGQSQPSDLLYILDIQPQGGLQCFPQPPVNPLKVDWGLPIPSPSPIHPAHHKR
T1 sequence (P08514 891-1039 partner limits assumed): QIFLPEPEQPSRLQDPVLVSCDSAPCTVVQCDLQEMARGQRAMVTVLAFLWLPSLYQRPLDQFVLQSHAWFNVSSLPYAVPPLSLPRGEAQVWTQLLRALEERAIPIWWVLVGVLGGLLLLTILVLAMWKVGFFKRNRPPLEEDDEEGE
T1 sequence (P05106 27-788): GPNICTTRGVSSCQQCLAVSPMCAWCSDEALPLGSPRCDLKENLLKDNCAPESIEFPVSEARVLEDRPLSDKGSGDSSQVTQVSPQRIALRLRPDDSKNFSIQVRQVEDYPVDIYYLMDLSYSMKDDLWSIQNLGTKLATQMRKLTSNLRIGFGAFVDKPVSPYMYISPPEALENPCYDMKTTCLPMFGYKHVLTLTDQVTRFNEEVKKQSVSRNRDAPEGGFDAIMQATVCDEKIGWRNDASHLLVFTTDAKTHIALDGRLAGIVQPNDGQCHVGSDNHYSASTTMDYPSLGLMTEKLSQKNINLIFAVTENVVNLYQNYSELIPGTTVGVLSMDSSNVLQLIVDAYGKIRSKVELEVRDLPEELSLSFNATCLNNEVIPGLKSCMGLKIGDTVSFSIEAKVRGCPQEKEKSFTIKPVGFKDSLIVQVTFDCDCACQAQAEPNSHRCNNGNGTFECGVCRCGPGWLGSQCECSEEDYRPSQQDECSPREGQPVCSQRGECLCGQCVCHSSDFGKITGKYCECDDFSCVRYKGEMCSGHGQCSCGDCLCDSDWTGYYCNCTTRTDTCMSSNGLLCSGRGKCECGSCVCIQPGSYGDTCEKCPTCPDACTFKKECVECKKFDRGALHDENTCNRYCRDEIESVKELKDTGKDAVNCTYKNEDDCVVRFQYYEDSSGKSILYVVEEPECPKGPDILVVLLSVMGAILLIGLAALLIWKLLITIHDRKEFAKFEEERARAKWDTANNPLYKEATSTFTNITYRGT
Excerpt: Compounds may be tested for their ability to block binding of vitronectin to the αv /β3 receptor and to block the binding of fibrinogen to GPIIb/IIIa receptor in the αv /β3 -Biotinylated Vitronectin Binding Assay and GPIIb/IIIa Receptor-Biotinylated Fibrinogen Binding Assay described below.
GPIIb/IIIa Receptor-Biotinylated Fibrinogen Binding Assay
The GPIIb/IIIa receptor was purified from human platelets according to D'Souza et al. (J. Biol. Chem., 1990, 265:3440-3446). The purified GPIIb/IIIa protein was coated on 96 well plates and the competition between test compound and biotinylated fibrinogen for binding to the plate-immobilized GPIIb/IIIa receptor was determined by ELISA as described below. Bound fibrinogen was detected using an avidin-alkaline phosphatase conjugate and paranitrophenol detection at […]. For IC50 determination, test agent was added at various concentrations to plates coated with purified GPIIb/IIIa protein which was followed by the addition of biotinylated fibrinogen. The inhibitory binding constant (Ki) of test agents were calculated under this assay system using standard Michaelis-Menten analysis. The IC50 is the concentration of test substance needed to block 50% of the fibrinogen binding to the GPIIb/IIIa receptor.
The following reagents may be used in the GPIIb/IIIa-fibrinogen binding ELISA:
purified GPIIb/IIIa (148.8 μg/mL);
biotinylated fibrinogen (~1 mg/mL or 3000 nM);
anti-biotin alkaline phosphatase conjugate (Sigma no. A7418);
flat-bottom, high binding, 96-well plates (Costar Cat. no. 3590);
phosphatase substrate (Sigma 104) (40 mg capsules);
bovine serum albumin (BSA) (Sigma no. A3294);
Alkaline Phosphatase buffer--0.1 M glycine-HCl, 1 mM MgCl2.6H2 O, 1 mM ZnCl2, pH 10.4;
Binding buffer--20 mM Tris-HCl, 150 mM NaCl, 1 mM CaCl2.2H2 O, 0.02% NaN3, pH 7.0;
Buffer A--50 mM Tris-HCl, 100 mM NaCl, 2 mM CaCl2.2H2 O, 0.02% NaN3, pH 7.4;
Buffer A+3.5% BSA (Blocking buffer);
Buffer A+0.1% BSA (Dilution buffer);
The following method steps are used in the GPIIb/IIIa-fibrinogen binding ELISA:
Coat plates with GPIIb/IIIa in Binding buffer (125 ng/100 μL/well) overnight at 4° C. (Leave first column uncoated for non-specific binding). Cover and freeze plates at -70° C. until used. Thaw plate 1 hour at room temperature or overnight at 4° C. Discard coating solution and wash once with 200 μL Binding buffer per well. Block plate 2 hours at room temperature on shaker with 200 μl Buffer A+3.5% BSA (Blocking buffer) per well. Discard Blocking buffer and wash once with 200 μL Buffer A+0.1% BSA (Dilution buffer) per well. Pipet 11 μL of test compound (10× the concentration to be tested in Dilution buffer) into duplicate wells. […] Read plate at 405 nm. Blank against non-specific binding (NSB) well. % Inhibition is calculated as 100-(Test Compound Abs/Total Abs)×100.

Row | SMILES | Platelet Aggregation Inhibition (%) ([1]; 1 mg/kg) | Platelet Aggregation Inhibition (%) ([1]; 3 mg/kg) | Platelet Aggregation Inhibition (%) ([1]; 10 mg/kg) | IC50 [2] [µM] | IC50 [3] [µM]
1 | C[C@@H]1NC(=O)c2cccc(c2)CNC(=O)[C@H](CC(=O)O)NC(=O)CNC(=O)[C@H](CCCNC(=N)N)NC1=O [Compound A, cyclo-(Ala-Arg-Gly-Asp-Mamb)] (cyclo(RGD[3Amb]A)) | 0-10% | 10-20% | 30-50% | 18 | 0.408
2 | N=C(N)NCCC[C@@H]1NC(=O)[C@@H]2CCCN2C(=O)c2cccc(c2)CNC(=O)[C@H](CC(=O)O)NC(=O)CNC1=O [Compound B, cyclo-(Pro-Arg-Gly-Asp-Mamb)] (cyclo(RGD[3Amb]P)) | 0-10% | 0-10% | 10-20% | 44 | 1.52
